# Results reported in patent US20190353647A1, “NOVEL REAL-TIME MULTIPLEXED, MULTI-COLOR BIOLUMINESCENCE RESONANCE ENERGY TRANSFER ASSAY, APPARATUS, AND USES THEREOF” (Universite de Bordeaux, priority 2016, published 2019).
# Key:
# TRPV4 = TRPV4 (Homo sapiens, UniProt Q9HBA0); experiment: Intermolecular BRET assay, TRPV4-Luc/YFP-CaM in HEK293T cells; type: cell-based; design: expressed in transfected cells; host or cells: HEK293T; settings: for TRPV4-Luc/YFP-CaM basal BRET signal on challenge: HEK293T, dose-response, FIG. 1
# Source text: (§1) In order to generate the BRET constructs, super Yellow Fluorescent Protein 2 and Renilla Luciferase II were used to improve the brightness of the assay. They were referred as YFP and Luc for short in the rest of the manuscript. The cDNA of Luc and YFP were first cloned together using a three-piece ligation in the BamHI/XhoI site of pcDNA3.1(+) (Invitrogen, Carlsbad, Calif., USA), yielding two expression vectors pcDNA3.1 YFP-Luc where YFP was cloned in-fusion at the N-terminal of Luc, and pcDNA3.1 Luc-YFP where Luc was cloned in-fusion at the N-terminal of YFP. Both YFP and Luc were amplified by PCR from the pcDNA3-YFP-EPAC-Luc vector. Luc was cloned either at the N-terminal of YFP as a HindIII-EcoRI fragment (primers used: “Luc_HindIII_ATGN-term sense” and “Luc_no Stop_EcoRI_N-term antisense”) or at the COOH-terminal of YFP as an EcoRI-XhoI fragment (primer used: “Luc_EcoRI_ATG_C-term sense” and “Luc_XhoI_Stop_C-term antisense”). In parallel, YFP was cloned either at the N-terminal of Luc as a HindIII-EcoRI fragment (primers used: “YFP_HindIII_ATG_N-term sense” and “YFP_no Stop_EcoRI_N-term antisense”) or at the COOH-terminal of Luc as a EcoRI-XhoI fragment (primer used: “YFP_EcoRI_ATG_C-term sense” and “YFP_XhoI_Stop_C-term antisense”). The sequence joining Luc and YFP sequence encoded […] (SEQ ID NO: 18) as a linker, and contained an AgeI restriction site. The YFP-hTRPV1-Luc expression vector was obtained by subcloning the human TRPV1 cDNA from the pDONR201-hTRPV1 vector (Harvard Medical School PlasmID Repository, clone HsCD00081472) as an EcoRI PCR fragment in the EcoRI site of the vector pcDNA3.1 YFP-Luc (primer used: “hTRPV1_EcoRI_Fus_Sense” and “hTRPV1_EcoRI_Fus_antisense”). The hTRPV1-Luc expression vector was obtained by subcloning the cDNA of hTRPV1 as a HindIII-EcoRI fragment in place of the YFP in the HindIII-EcoRI site of the pcDNA3.1 YFP-Luc vector (primer used: “hTRPV1_HindIII_ATG_Sense” and “hTRPV1_EcoRI_Fus_antisense”). […]
# (§2) HEK293T cells were maintained in Dulbecco's modified Eagle's medium-high Glucose (DMEM) (D6429, Sigma) supplemented with 10% fetal bovine serum, 100 units mL-1 penicillin and streptomycin. […] After overnight incubation, transfected cells were then detached, resuspended in DMEM w/o red phenol (Ref 21063-029, ThermoFisher scientific, Waltham, Mass., USA) and replated at a density of 10^5 cells per well in 96-well white plates with clear bottoms (Greiner Bio one, Courtaboeuf, France) pre-treated with D-polylysine (Sigma) for reading with the Tristar2 luminometer (Berthold Technologies, Bad Wildbad, Germany) or onto 12 mm diameter glass coverslips (Knittel Glass, Braunschweig, Germany) treated with poly-L-lysine for the reading with the SpectraPro 2300i spectrometer (Acton Optics, Acton, Mass., USA). […]
# TRPV3 = target: T1, TRPV3 (Homo sapiens, UniProt Q8NET8); experiment: Intermolecular BRET assay, Luc-TRPV3/YFP-CaM in HEK293T cells; type: cell-based; design: expressed in transfected cells; host or cells: HEK293T; settings: dose-response; for BRET signal between YFP-CaM and Luc-TRPV3 on challenge: FIG. 1
# T1 sequence (Q8NET8 1-790): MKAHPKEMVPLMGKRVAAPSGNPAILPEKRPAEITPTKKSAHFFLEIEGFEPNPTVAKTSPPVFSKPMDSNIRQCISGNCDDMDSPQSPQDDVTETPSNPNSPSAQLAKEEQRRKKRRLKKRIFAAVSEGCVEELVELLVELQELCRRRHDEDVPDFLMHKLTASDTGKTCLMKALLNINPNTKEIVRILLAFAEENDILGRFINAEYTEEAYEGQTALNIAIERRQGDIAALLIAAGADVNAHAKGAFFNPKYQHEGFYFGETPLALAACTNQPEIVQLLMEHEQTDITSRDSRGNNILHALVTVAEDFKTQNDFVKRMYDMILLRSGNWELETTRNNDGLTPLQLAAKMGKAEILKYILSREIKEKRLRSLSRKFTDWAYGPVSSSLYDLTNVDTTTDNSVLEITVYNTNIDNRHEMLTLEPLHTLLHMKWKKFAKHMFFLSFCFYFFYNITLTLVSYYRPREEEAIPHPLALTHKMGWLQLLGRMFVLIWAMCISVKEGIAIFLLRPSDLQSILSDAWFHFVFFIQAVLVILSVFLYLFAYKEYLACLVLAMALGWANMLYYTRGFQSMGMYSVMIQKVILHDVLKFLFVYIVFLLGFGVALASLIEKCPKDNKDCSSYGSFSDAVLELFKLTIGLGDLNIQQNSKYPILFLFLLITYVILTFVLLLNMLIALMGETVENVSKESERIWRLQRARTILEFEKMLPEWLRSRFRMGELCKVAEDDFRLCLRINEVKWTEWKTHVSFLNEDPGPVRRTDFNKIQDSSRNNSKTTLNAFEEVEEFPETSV
# Source text: as §1, §2
# TRPV4, sequence (Q9HBA0 whole entry, the tested form may be a part): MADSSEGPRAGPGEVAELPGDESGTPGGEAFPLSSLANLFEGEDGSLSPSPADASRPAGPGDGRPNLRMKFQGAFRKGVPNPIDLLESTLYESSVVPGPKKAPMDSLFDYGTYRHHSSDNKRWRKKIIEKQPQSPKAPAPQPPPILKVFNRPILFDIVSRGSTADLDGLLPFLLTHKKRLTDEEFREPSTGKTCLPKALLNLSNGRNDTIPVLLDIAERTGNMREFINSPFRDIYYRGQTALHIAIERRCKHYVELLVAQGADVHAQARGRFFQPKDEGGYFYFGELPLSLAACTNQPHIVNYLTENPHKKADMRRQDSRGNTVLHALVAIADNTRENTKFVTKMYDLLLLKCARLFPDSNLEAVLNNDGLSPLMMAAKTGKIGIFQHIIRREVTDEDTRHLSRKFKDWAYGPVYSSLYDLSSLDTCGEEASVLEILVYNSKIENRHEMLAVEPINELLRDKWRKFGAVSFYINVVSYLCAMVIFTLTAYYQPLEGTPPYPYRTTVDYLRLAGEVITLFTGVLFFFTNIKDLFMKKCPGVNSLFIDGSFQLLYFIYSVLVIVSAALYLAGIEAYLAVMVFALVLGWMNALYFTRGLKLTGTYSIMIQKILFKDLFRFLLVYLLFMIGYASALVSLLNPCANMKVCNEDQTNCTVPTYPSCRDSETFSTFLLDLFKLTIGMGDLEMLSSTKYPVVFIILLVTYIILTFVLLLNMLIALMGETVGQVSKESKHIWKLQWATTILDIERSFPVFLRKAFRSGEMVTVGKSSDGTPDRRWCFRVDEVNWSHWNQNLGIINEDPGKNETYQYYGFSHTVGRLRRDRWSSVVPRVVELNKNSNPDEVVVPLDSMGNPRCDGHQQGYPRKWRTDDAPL
SMILES,EC50 (TRPV4) [µM],TRPV4-Luc/YFP-CaM basal BRET signal on challenge (TRPV4),BRET signal between YFP-CaM and Luc-TRPV3 on challenge (TRPV3),"EC50 (TRPV3; FIG. 1, read-out: EC50 of BRET signal increase between YFP-CaM and Luc-TRPV3) [µM]"
CC(C)C[C@H](NC(=O)c1cc2ccccc2s1)C(=O)N1CCN(C(=O)[C@H](CO)NS(=O)(=O)c2ccc(Cl)cc2Cl)CC1 [GSK1016790A],0.00193,dose-dependent increase,no dose-dependent BRET increase,
"COc1cc(CNC(=O)CCCC/C=C/C(C)C)ccc1O [CAPS, Capsaicin]",,did not produce any increase,no dose-dependent BRET increase,
CCN(CC)CCOC(=O)C(c1ccccc1)C1CCCCC1 (centres unmarked) [Drofenine],,did not produce any increase,dose-dependent increase,206
